Measurements published in patent US11286268B1, “EIF4E-inhibiting compounds and methods” (EFFECTOR THERAPEUTICS, INC., priority 2019, dated 2022).
Like-named read-outs stand apart in the source and are kept apart here.

Molecular target: recombinant eIF4E (Homo sapiens (Human), UniProt P06730)
Assay: Fluorescence polarization competition assay for eIF4E binding potency
How it was run: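 Protein and fluorescent cap-analog probe (EDA-m7GDP-ATTO-550) were mixed first for 5 min, after which serially diluted compound was added to final 75 nM eIF4E, 20 nM probe, 1% DMSO. Reactions equilibrated 30 min at room temperature before polarization was measured.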

[1] = fluorescence polarization competition, 75 nM recombinant eIF4E, 20 nM EDA-m7GDP-ATTO-550, IC50 class, read-out: elF4E FP
[2] = inhibition of eIF4E/EDA-m7GDP-ATTO-550 binding, calculated IC50 values, Table 4B, read-out: IC50

Sequence of recombinant eIF4E (P06730 whole entry): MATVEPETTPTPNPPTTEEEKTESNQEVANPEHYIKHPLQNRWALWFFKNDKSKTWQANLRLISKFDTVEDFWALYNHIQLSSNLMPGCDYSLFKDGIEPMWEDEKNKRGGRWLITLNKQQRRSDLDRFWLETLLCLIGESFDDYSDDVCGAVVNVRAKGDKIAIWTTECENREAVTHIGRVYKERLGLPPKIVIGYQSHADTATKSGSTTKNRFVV

| IC50 [1] [nM] | IC50 [2] [nM] | Compound |
| --- | --- | --- |
| < 50 | 3.02 | Cc1cc(-c2cc(Cl)ccc2OCCn2c(C)nc3cc(C(F)(F)F)c(N4CCN(C)CC4)c(C#N)c3c2=O)cc(C(=O)O)n1 [compound 1222] |
| < 50 | 2.79 | CCc1cc(-c2cc(Cl)ccc2OCCn2c(C)nc3cc(C(F)(F)F)c(N4CCN(C)CC4)c(C#N)c3c2=O)cc(C(=O)O)n1 [compound 1223] |
| 50 to 1000 |  | COc1cc(-c2cc(Cl)ccc2OCCn2c(C)nc3cc(C(F)(F)F)c(N4CCN(C)CC4)c(C#N)c3c2=O)cc(C(=O)O)n1 [compound 1224] |
| < 50 | 3.12 | Cc1nc2cc(C(F)(F)F)c(N3CCN(C)CC3)c(C#N)c2c(=O)n1CCOc1ccc(Cl)cc1-c1cc(C(=O)O)nc(N(C)C)c1 [compound 1225] |
| < 50 | 6.63 | Cc1cc(-c2cc(Cl)ccc2OCCn2c(C)nc3cc(C(F)(F)F)c(N4CCN(C)CC4)c(C#N)c3c2=O)c(C)c(C(=O)O)n1 [compound 1226] |
| < 50 | 12.8 | Cc1cc(-c2cc(Cl)ccc2OCCn2c(C)nc3cnc(-c4ccc(C)c(O)c4)c(C#N)c3c2=O)c2scc(C(=O)O)c2n1 [compound 1227] |
| < 50 | 1.11 | Cc1nc2cc(C(F)(F)F)c(N3CCN(C)CC3)c(C#N)c2c(=O)n1CCOc1ccc(Cl)cc1-c1ccnc2c(-c3nn[nH]n3)csc12 [compound 1228] |
| < 50 | 10.7 | Cc1nc2cnc(N(C)[C@H]3CC[C@H](N(C)CCF)CC3)c(C#N)c2c(=O)n1CC#Cc1ccc(Cl)cc1-c1ccnc2c(C(=O)O)csc12 [compound 1229] |
| < 50 | 10.3 | Cc1nc2cc(C(F)(F)F)c(N3CCN(C)CC3)cc2c(=O)n1CCOc1ccc(Cl)cc1-c1ccnc2c(C(=O)O)csc12 [compound 1230] |
| < 50 | 30.2 | COC1CCN(c2ncc3nc(C)n(CCOc4ccc(Cl)cc4-c4cc(C)nc5c(C(=O)O)csc45)c(=O)c3c2C#N)C1 (centres unmarked) [compound 1234] |
| < 50 | 6.32 | CCc1cc(-c2cc(Cl)ccc2OCCn2c(C)nc3cnc(N4CCC(O)C4)c(C#N)c3c2=O)c2scc(C(=O)O)c2n1 (centres unmarked) [compound 1235] |
| < 50 | 33.9 | Cc1cc(-c2cc(Cl)ccc2OCCn2c(C)nc3cnc(N4CCC(O)C4)c(C#N)c3c2=O)c2sc(C)c(C(=O)O)c2n1 (centres unmarked) [compound 1236] |
| < 50 | 6.68 | Cc1sc2c(-c3cc(Cl)ccc3OCCn3c(C)nc4cc(C(F)(F)F)c(N5CCN(C)CC5)c(C#N)c4c3=O)cc(CF)nc2c1C(=O)O [compound 1237] |
| < 50 | 18.2 | Cc1nc2cc(C(F)(F)F)c(N3CCN(CC(F)F)CC3)c(C#N)c2c(=O)n1CCOc1ccc(Cl)cc1-c1ccnc2c(C(=O)O)csc12 [compound 1239] |
| < 50 | 15.5 | Cc1cc2cc(C(F)(F)F)c(N3CCN(C)CC3)c(C#N)c2c(=O)n1CCOc1ccc(Cl)cc1-c1ccnc2c(C(=O)O)csc12 [compound 1240] |
| < 50 | 17.3 | Cc1nc2cc(C(F)(F)F)c(N3CCN(C4COC4)CC3)c(C#N)c2c(=O)n1CCOc1ccc(Cl)cc1-c1ccnc2c(C(=O)O)csc12 [compound 1241] |
| < 50 | 8.85 | Cc1cc(-c2cc(Cl)ccc2OCCn2c(C)nc3cc(C(F)(F)F)c(N4CCN(C5COC5)CC4)c(C#N)c3c2=O)c2scc(C(=O)O)c2n1 [compound 1242] |
| < 50 | 5.55 | COCCN1CCN(c2c(C(F)(F)F)cc3nc(C)n(CCOc4ccc(Cl)cc4-c4ccnc5c(C(=O)O)csc45)c(=O)c3c2C#N)CC1 [compound 1243] |
| < 50 | 19.4 | C#Cc1cc2nccc(-c3cc(Cl)ccc3OCCn3c(C)nc4cc(C(F)(F)F)c(N5CCN(C)CC5)c(C#N)c4c3=O)c2s1 [compound 1244] |
| < 50 | 15.6 | Cc1nc2cc(C(F)(F)F)c(N3CCN(C)CC3)c(C#N)c2c(=O)n1CCOc1ccc(Cl)cc1-c1ccnc2cc(C#N)sc12 [compound 1245] |
| 50 to 1000 | 106 | Cc1nc2cc(C(F)(F)F)c(N3CCN(C)CC3)c(C#N)c2c(=O)n1CCOc1ccc(Cl)cc1-c1ccnc2cc(Cl)sc12 [compound 1246] |
| < 50 | 35.5 | Cc1nc2cc(C(F)(F)F)c(N3CCN(C)CC3)c(C#N)c2c(=O)n1CCOc1ccc(Cl)cc1-c1ccnc2c(Cl)csc12 [compound 1247] |
| 50 to 1000 | 60.7 | Cc1cc2nccc(-c3cc(Cl)ccc3OCCn3c(C)nc4cc(C(F)(F)F)c(N5CCN(C)CC5)c(C#N)c4c3=O)c2s1 [compound 1248] |
| 50 to 1000 | 75.9 | Cc1csc2c(-c3cc(Cl)ccc3OCCn3c(C)nc4cc(C(F)(F)F)c(N5CCN(C)CC5)c(C#N)c4c3=O)ccnc12 [compound 1249] |
| 50 to 1000 | 75.8 | Cc1nc2cc(C(F)(F)F)c(N3CCN(C)CC3)c(C#N)c2c(=O)n1CCOc1ccc(Cl)cc1-c1ncnc2ccsc12 [compound 1250] |
|  | 4.77 | Cc1nc2cc(C(F)(F)F)c(N3CCN(C)CC3)c(C#N)c2c(=O)n1CCOc1ccc(Cl)cc1-c1ccnc2cnsc12 [compound 1251] |
|  | 222 | Cc1sc2c(-c3cc(Cl)ccc3OCCn3c(C)nc4cc(C(F)(F)F)c(N5CCN(C)CC5)c(C#N)c4c3=O)ccnc2c1C [compound 1252] |

| IC50 [1] [nM] | IC50 [2] [nM] | Compound |
| --- | --- | --- |
|  | 8.4 | Cc1nc2cc(C(F)(F)F)c(N3CCN(C)CC3)c(C#N)c2c(=O)n1CCOc1ccc(Cl)cc1-c1cc(CF)nc2ccsc12 [compound 1253] |
|  | 26.5 | Cc1nc2cc(C(F)(F)F)c(N3CCN(C)CC3)c(C#N)c2c(=O)n1CCOc1ccc(Cl)cc1-c1ccnc2c(C#N)csc12 [compound 1254] |
|  | 150 | Cc1nc2cc(C(F)(F)F)c(CCN(C)C)c(C#N)c2c(=O)n1CCOc1ccc(Cl)cc1-c1ccnc2ccsc12 [compound 1255] |
|  | 24.7 | Cc1nc2cc(C(F)(F)F)c(CN3CCN(C)CC3)c(C#N)c2c(=O)n1CCOc1ccc(Cl)cc1-c1ccnc2ccsc12 [compound 1256] |
|  | 52.5 | Cc1nc2cnc(N3CCN(C)CC3)c(C#N)c2c(=O)n1CCOc1ccc(Cl)cc1-c1ccnc2ccsc12 [compound 1257] |
|  | 61.5 | Cc1nc2cnc(N3CCC(O)C3)c(C#N)c2c(=O)n1CCOc1ccc(Cl)cc1-c1ccnc2ccsc12 (centres unmarked) [compound 1258] |
|  | 13 | Cc1nc2cc(C(F)(F)F)c(C#CCN)c(C#N)c2c(=O)n1CCOc1ccc(Cl)cc1-c1ccnc2c(C(=O)O)csc12 [compound 1260] |
|  | 33.6 | Cc1nc2cc(C(F)(F)F)c(N3CCN(C)C(CO)C3)c(C#N)c2c(=O)n1CCOc1ccc(Cl)cc1-c1ccnc2c(C(=O)O)csc12 (centres unmarked) [compound 1261] |
|  | 12.4 | Cc1nc2cnc(C3(F)CCN(C)CC3)c(C#N)c2c(=O)n1CCOc1ccc(Cl)cc1-c1ccnc2c(C(=O)O)csc12 [compound 1264] |
|  | 11.5 | Cc1nc(N2CC3(CN(C)C3)C2)c(C#N)c2c(=O)n(CCOc3ccc(Cl)cc3-c3ccnc4c(C(=O)O)csc34)c(C)nc12 [compound 1265] |
|  | > 1000 | Cc1ncc(F)cc1-c1c(CN(C)C)cc2nc(C)n(CCOc3ccc(Cl)cc3-c3ccnc4c(C(=O)O)csc34)c(=O)c2c1C#N [compound 1267] |
|  | 472 | COc1ccc(-c2csc3c(-c4cc(Cl)ccc4OCCn4c(C)nc5cnc(N6CCN(C)CC6)c(C#N)c5c4=O)ccnc23)cc1 [compound 1268] |
|  | 66.6 | Cc1nc2cc(C(F)(F)F)c(N3CCN(C)CC3)c(C#N)c2c(=O)n1CCSc1ccc(Cl)cc1-c1ccnc2c(C(=O)O)csc12 [compound 1269] |
|  | 39.9 | Cc1nc2cc(C(F)(F)F)c(N3CCN(C)CC3=O)c(C#N)c2c(=O)n1CC#Cc1ccc(Cl)cc1-c1ccnc2c(C(=O)O)csc12 [compound 1270] |
|  | 13.1 | Cc1sc2c(-c3cc(Cl)ccc3C#CCn3c(C)nc4cc(C(F)(F)F)c(N5CCN(C)CC5)c(C#N)c4c3=O)ccnc2c1C(=O)O [compound 1271] |
|  | 28.1 | Cc1sc2c(-c3cc(Cl)ccc3OCCn3c(C)nc4cc(C(F)(F)F)c(N5CCN(C)CC5=O)c(C#N)c4c3=O)ccnc2c1C(=O)O [compound 1272] |
|  | 7.48 | Cc1nc(N2CCN(C)CC2)c(C#N)c2c(=O)n(CC#Cc3ccc(Cl)cc3-c3ccnc4c(C(=O)O)csc34)c(C)nc12 [compound 1273] |
|  | 40.2 | Cc1nc(N2CCN(CC(F)F)CC2)c(C#N)c2c(=O)n(CCOc3ccc(Cl)cc3-c3ccnc4c(C(=O)O)csc34)c(C)nc12 [compound 1274] |
|  | 58.7 | CCc1cc(-c2cc(Cl)ccc2OCCn2c(C)nc3cc(C(F)(F)F)c(CC4CCN(C)CC4)c(C#N)c3c2=O)c2scc(C(=O)O)c2n1 [compound 1275] |
|  | 13.5 | CCc1cc(-c2cc(Cl)ccc2OCCn2c(C)nc3cc(C(F)(F)F)c(CC4CCNCC4)c(C#N)c3c2=O)c2scc(C(=O)O)c2n1 [compound 1276] |
|  | 38.4 | Cc1nc2cc(CN3CC(F)(F)C3)c(OC(F)F)c(C#N)c2c(=O)n1CCOc1ccc(Cl)cc1-c1ccnc2c(C(=O)O)csc12 [compound 1277] |
|  | 10.6 | Cc1nc2cc(CN(C)CCF)c(OC(F)F)c(C#N)c2c(=O)n1CCOc1ccc(Cl)cc1-c1ccnc2c(C(=O)O)csc12 [compound 1278] |
|  | 8.91 | Cc1nc2cnc(C3CCC(F)(F)C3)c(C#N)c2c(=O)n1CCOc1ccc(Cl)cc1-c1ccnc2c(C(=O)O)csc12 (centres unmarked) [compound 1279] |
|  | 4.26 | Cc1cc(-c2cc(Cl)ccc2OCCn2c(C)nc3ccc(N4CCC(O)C4)c(C#N)c3c2=O)c2scc(C(=O)O)c2n1 (centres unmarked) [compound 1280] |
|  | 117 | Cc1nc2cnc(N(C)C3CCN(CC(F)F)CC3)c(C#N)c2c(=O)n1CC#Cc1ccc(Cl)cc1-c1ccnc2c(C(N)=O)csc12 [compound 1281] |
|  | 38.2 | Cc1sc2c(-c3cc(Cl)ccc3OCCn3c(C)nc4cnc(N5CCN(C)CC5)c(C#N)c4c3=O)ccnc2c1C(=O)O [compound 1282] |
